{
  "source": "ChEMBL document CHEMBL5303573",
  "about": "“Mapping human microbiome drug metabolism by gut bacteria and their genes” (Nature, 2019)",
  "key": {"[1]": {"settings": "akkermansia muciniphila, 12 h, 2 µM", "description": "The drug is tested on Akkermansia muciniphila strain: ATCC BAA-835 for biotransformation. The drug concentrations were measured before and after a 12-h incubation by liquid-chromatography-coupled mass spectrometry (LC–MS)"}, "[2]": {"experiment": "The drug is tested on Eubacterium ventriosum strain: ATCC27560 for biotransformation. The drug concentrations were measured before and after a 12-h incubation by liquid-chromatography-coupled mass spectrometry (LC–MS)", "type": "ADME", "set-up": "dose 2 uM, timepoint 0 vs 12 hours", "settings": "2 µM"}, "[3]": {"experiment": "The drug is tested on Eubacterium hallii strain: DSM3353 for biotransformation. The drug concentrations were measured before and after a 12-h incubation by liquid-chromatography-coupled mass spectrometry (LC–MS)", "settings": "anaerobutyricum hallii, 2 µM"}, "[4]": {"experiment": "The drug is tested on Enterococcus faecalis strain: V583 for biotransformation. The drug concentrations were measured before and after a 12-h incubation by liquid-chromatography-coupled mass spectrometry (LC–MS)", "settings": "2 µM"}, "[5]": {"settings": "segatella copri, 12 h, 2 µM", "description": "The drug is tested on Prevotella copri strain: DSM18205 for biotransformation. The drug concentrations were measured before and after a 12-h incubation by liquid-chromatography-coupled mass spectrometry (LC–MS)"}, "[6]": {"settings": "bacteroides fragilis, 12 h, 2 µM", "description": "The drug is tested on Bacteroides fragilis strain: 3397 (T10) for biotransformation. The drug concentrations were measured before and after a 12-h incubation by liquid-chromatography-coupled mass spectrometry (LC–MS)"}, "[7]": {"experiment": "The drug is tested on Blautia hansenii strain: DSM20583 for biotransformation. The drug concentrations were measured before and after a 12-h incubation by liquid-chromatography-coupled mass spectrometry (LC–MS)", "settings": "2 µM"}, "[8]": {"experiment": "The drug is tested on Escherichia coli strain: BW25113 for biotransformation. The drug concentrations were measured before and after a 12-h incubation by liquid-chromatography-coupled mass spectrometry (LC–MS)", "settings": "2 µM"}, "[9]": {"settings": "bifidobacterium adolescentis, 12 h, 2 µM", "description": "The drug is tested on Bifidobacterium adolescentis strain: ATCC 15703 for biotransformation. The drug concentrations were measured before and after a 12-h incubation by liquid-chromatography-coupled mass spectrometry (LC–MS)"}, "[10]": {"experiment": "The drug is tested on Odoribacter splanchnicus strain: fecal isolate for biotransformation. The drug concentrations were measured before and after a 12-h incubation by liquid-chromatography-coupled mass spectrometry (LC–MS)", "settings": "2 µM"}, "[11]": {"experiment": "The drug is tested on Clostridium sp. strain: fecal isolate for biotransformation. The drug concentrations were measured before and after a 12-h incubation by liquid-chromatography-coupled mass spectrometry (LC–MS)", "settings": "2 µM"}, "[12]": {"experiment": "The drug is tested on Bifidobacterium breve strain: DSM20213 for biotransformation. The drug concentrations were measured before and after a 12-h incubation by liquid-chromatography-coupled mass spectrometry (LC–MS)", "settings": "2 µM"}, "[13]": {"experiment": "The drug is tested on Bacteroides fragilis strain: ATCC43859 for biotransformation. The drug concentrations were measured before and after a 12-h incubation by liquid-chromatography-coupled mass spectrometry (LC–MS)", "settings": "2 µM"}, "[14]": {"settings": "limosilactobacillus reuteri cf48-3a, 12 h, 2 µM", "description": "The drug is tested on Lactobacillus reuteri CF48-3A strain: BEI HM-102 for biotransformation. The drug concentrations were measured before and after a 12-h incubation by liquid-chromatography-coupled mass spectrometry (LC–MS)"}, "[15]": {"experiment": "The drug is tested on Subdoligranulum variabile strain: DSM15176 for biotransformation. The drug concentrations were measured before and after a 12-h incubation by liquid-chromatography-coupled mass spectrometry (LC–MS)", "settings": "2 µM"}, "[16]": {"settings": "roseburia intestinalis, 12 h, 2 µM", "description": "The drug is tested on Roseburia intestinalis strain: L1-82 for biotransformation. The drug concentrations were measured before and after a 12-h incubation by liquid-chromatography-coupled mass spectrometry (LC–MS)"}, "[17]": {"experiment": "The drug is tested on Bacteroides coprophilus strain: DSM18228 for biotransformation. The drug concentrations were measured before and after a 12-h incubation by liquid-chromatography-coupled mass spectrometry (LC–MS)", "settings": "2 µM"}, "[18]": {"experiment": "The drug is tested on Bacteroides uniformis strain: ATCC8492 for biotransformation. The drug concentrations were measured before and after a 12-h incubation by liquid-chromatography-coupled mass spectrometry (LC–MS)", "settings": "2 µM"}, "[19]": {"experiment": "The drug is tested on Bacteroides ovatus strain: ATCC8483 for biotransformation. The drug concentrations were measured before and after a 12-h incubation by liquid-chromatography-coupled mass spectrometry (LC–MS)", "settings": "2 µM"}, "[20]": {"experiment": "The drug is tested on Clostridium sporogenes strain: ATCC15579 for biotransformation. The drug concentrations were measured before and after a 12-h incubation by liquid-chromatography-coupled mass spectrometry (LC–MS)", "settings": "2 µM"}},
  "data": [
    {"compound": "CC(CCc1ccccc1)NCC(O)c1ccc(O)c(C(N)=O)c1", "note": "(stereo not given) [LABETALOL]", "values": [
      {"measurement": "Bacterial Biotransformation", "setting": "[1]", "value": "Compound NOT metabolized"},
      {"measurement": "Bacterial Biotransformation", "setting": "[2]", "value": "Compound NOT metabolized"},
      {"measurement": "Bacterial Biotransformation", "setting": "[3]", "value": "Compound NOT metabolized"},
      {"measurement": "Bacterial Biotransformation", "setting": "[4]", "value": "Compound NOT metabolized"},
      {"measurement": "Bacterial Biotransformation", "setting": "[5]", "value": "Compound NOT metabolized"},
      {"measurement": "Bacterial Biotransformation", "setting": "[6]", "value": "Compound NOT metabolized"},
      {"measurement": "Bacterial Biotransformation", "setting": "[7]", "value": "Compound NOT metabolized"},
      {"measurement": "Bacterial Biotransformation", "setting": "[8]", "value": "Compound NOT metabolized"},
      {"measurement": "Bacterial Biotransformation", "setting": "[9]", "value": "Compound NOT metabolized"},
      {"measurement": "Bacterial Biotransformation", "setting": "[10]", "value": "Compound NOT metabolized"},
      {"measurement": "Bacterial Biotransformation", "setting": "[11]", "value": "Compound NOT metabolized"},
      {"measurement": "Bacterial Biotransformation", "setting": "[12]", "value": "Compound NOT metabolized"},
      {"measurement": "Bacterial Biotransformation", "setting": "[13]", "value": "Compound NOT metabolized"},
      {"measurement": "Bacterial Biotransformation", "setting": "[14]", "value": "Compound NOT metabolized"},
      {"measurement": "Bacterial Biotransformation", "setting": "[15]", "value": "Compound NOT metabolized"},
      {"measurement": "Bacterial Biotransformation", "setting": "[16]", "value": "Compound NOT metabolized"},
      {"measurement": "Bacterial Biotransformation", "setting": "[17]", "value": "Compound NOT metabolized"},
      {"measurement": "Bacterial Biotransformation", "setting": "[18]", "value": "Compound NOT metabolized"},
      {"measurement": "Bacterial Biotransformation", "setting": "[19]", "value": "Compound NOT metabolized"},
      {"measurement": "Bacterial Biotransformation", "setting": "[20]", "value": "Compound NOT metabolized"}
    ]},
    {"compound": "CO[C@]12C[C@@H](COC(=O)c3cncc(Br)c3)CN(C)[C@@H]1Cc1cn(C)c3cccc2c13", "note": "[NICERGOLINE]", "values": [
      {"measurement": "Bacterial Biotransformation", "setting": "[1]", "value": "Compound NOT metabolized"},
      {"measurement": "Bacterial Biotransformation", "setting": "[2]", "value": "Compound NOT metabolized"},
      {"measurement": "Bacterial Biotransformation", "setting": "[3]", "value": "Compound NOT metabolized"},
      {"measurement": "Bacterial Biotransformation", "setting": "[4]", "value": "Compound NOT metabolized"},
      {"measurement": "Bacterial Biotransformation", "setting": "[5]", "value": "Compound NOT metabolized"},
      {"measurement": "Bacterial Biotransformation", "setting": "[6]", "value": "Compound NOT metabolized"},
      {"measurement": "Bacterial Biotransformation", "setting": "[7]", "value": "Compound NOT metabolized"},
      {"measurement": "Bacterial Biotransformation", "setting": "[8]", "value": "Compound NOT metabolized"},
      {"measurement": "Bacterial Biotransformation", "setting": "[9]", "value": "Compound NOT metabolized"},
      {"measurement": "Bacterial Biotransformation", "setting": "[10]", "value": "Compound NOT metabolized"},
      {"measurement": "Bacterial Biotransformation", "setting": "[11]", "value": "Compound NOT metabolized"},
      {"measurement": "Bacterial Biotransformation", "setting": "[12]", "value": "Compound NOT metabolized"},
      {"measurement": "Bacterial Biotransformation", "setting": "[13]", "value": "Compound NOT metabolized"},
      {"measurement": "Bacterial Biotransformation", "setting": "[14]", "value": "Compound NOT metabolized"},
      {"measurement": "Bacterial Biotransformation", "setting": "[15]", "value": "Compound NOT metabolized"},
      {"measurement": "Bacterial Biotransformation", "setting": "[16]", "value": "Compound NOT metabolized"},
      {"measurement": "Bacterial Biotransformation", "setting": "[17]", "value": "Compound NOT metabolized"},
      {"measurement": "Bacterial Biotransformation", "setting": "[18]", "value": "Compound metabolized"},
      {"measurement": "Bacterial Biotransformation", "setting": "[19]", "value": "Compound NOT metabolized"},
      {"measurement": "Bacterial Biotransformation", "setting": "[20]", "value": "Compound NOT metabolized"}
    ]},
    {"compound": "C[C@H]1O[C@@H](O[C@H]2[C@@H](O)C[C@H](O[C@H]3[C@@H](O)C[C@H](O[C@H]4CC[C@@]5(C)[C@H](CC[C@@H]6[C@@H]5C[C@@H](O)[C@]5(C)[C@@H](C7=CC(=O)OC7)CC[C@]65O)C4)O[C@@H]3C)O[C@@H]2C)C[C@H](O)[C@@H]1O", "note": "[DIGOXIN]", "values": [
      {"measurement": "Bacterial Biotransformation", "setting": "[1]", "value": "Compound NOT metabolized"},
      {"measurement": "Bacterial Biotransformation", "setting": "[2]", "value": "Compound NOT metabolized"},
      {"measurement": "Bacterial Biotransformation", "setting": "[3]", "value": "Compound NOT metabolized"},
      {"measurement": "Bacterial Biotransformation", "setting": "[4]", "value": "Compound NOT metabolized"},
      {"measurement": "Bacterial Biotransformation", "setting": "[5]", "value": "Compound NOT metabolized"},
      {"measurement": "Bacterial Biotransformation", "setting": "[6]", "value": "Compound metabolized"},
      {"measurement": "Bacterial Biotransformation", "setting": "[7]", "value": "Compound metabolized"},
      {"measurement": "Bacterial Biotransformation", "setting": "[8]", "value": "Compound NOT metabolized"},
      {"measurement": "Bacterial Biotransformation", "setting": "[9]", "value": "Compound NOT metabolized"},
      {"measurement": "Bacterial Biotransformation", "setting": "[10]", "value": "Compound metabolized"},
      {"measurement": "Bacterial Biotransformation", "setting": "[11]", "value": "Compound metabolized"},
      {"measurement": "Bacterial Biotransformation", "setting": "[12]", "value": "Compound NOT metabolized"},
      {"measurement": "Bacterial Biotransformation", "setting": "[13]", "value": "Compound metabolized"},
      {"measurement": "Bacterial Biotransformation", "setting": "[14]", "value": "Compound NOT metabolized"},
      {"measurement": "Bacterial Biotransformation", "setting": "[15]", "value": "Compound NOT metabolized"},
      {"measurement": "Bacterial Biotransformation", "setting": "[16]", "value": "Compound NOT metabolized"},
      {"measurement": "Bacterial Biotransformation", "setting": "[17]", "value": "Compound metabolized"},
      {"measurement": "Bacterial Biotransformation", "setting": "[18]", "value": "Compound metabolized"},
      {"measurement": "Bacterial Biotransformation", "setting": "[19]", "value": "Compound metabolized"},
      {"measurement": "Bacterial Biotransformation", "setting": "[20]", "value": "Compound NOT metabolized"}
    ]}
  ]
}
